In patent publication US10894777B2, “TG2 inhibitor piperazine compounds and uses thereof” (UNIVERSITY OF OTTAWA, priority 2016, dated 2021):
Residue numbers refer to the chain shown, from its start.

Experiments:
R580A-TG2 = biological target: T1, R580A-TG2 (Homo sapiens, UniProt P21980, R580A); test: In situ transamidating assay, SH-SY5Y cells stably overexpressing R580A-TG2; assay type: cell-based; conditions: 10 μM, 16-20 h, no calcium stimulation
T1 construct: expressed in transfected cells
T1 sequence (P21980 1-687 R580A): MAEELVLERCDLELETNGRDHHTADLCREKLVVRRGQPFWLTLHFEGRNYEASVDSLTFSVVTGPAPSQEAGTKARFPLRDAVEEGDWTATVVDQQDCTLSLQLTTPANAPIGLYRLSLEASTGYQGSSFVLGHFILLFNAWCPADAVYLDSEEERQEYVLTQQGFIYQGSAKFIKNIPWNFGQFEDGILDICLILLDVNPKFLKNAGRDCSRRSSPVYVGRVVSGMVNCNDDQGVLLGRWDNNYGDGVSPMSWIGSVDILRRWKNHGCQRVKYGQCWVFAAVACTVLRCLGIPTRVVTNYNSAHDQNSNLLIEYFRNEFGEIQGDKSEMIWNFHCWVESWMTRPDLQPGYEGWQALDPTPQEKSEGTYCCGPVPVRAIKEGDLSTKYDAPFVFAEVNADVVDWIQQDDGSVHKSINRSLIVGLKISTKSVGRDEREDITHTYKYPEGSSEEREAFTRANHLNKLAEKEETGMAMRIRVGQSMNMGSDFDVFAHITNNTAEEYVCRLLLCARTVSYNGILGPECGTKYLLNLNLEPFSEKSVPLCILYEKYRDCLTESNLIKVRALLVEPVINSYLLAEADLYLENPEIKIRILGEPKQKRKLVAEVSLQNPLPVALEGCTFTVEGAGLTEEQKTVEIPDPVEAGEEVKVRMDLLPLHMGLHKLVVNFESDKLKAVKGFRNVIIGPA
Protocol: These inhibitors were then tested in cell culture models for their efficiency in inhibiting in situ transamidating activity. […] For these studies we used SH-SY5Y neuroblastoma cells stably overexpressing R580A-TG2.
In situ transglutaminase assay. In situ transamidating activity measurement was conducted as described previously (Gundemir, S. and Johnson, G. V., PLoS ONE 4(7):e6123, 2009) with slight modifications. Briefly, 24 h after transfection of HEK 293A cells, normal growth media was changed to fresh growth media with 5% FBS containing given amount of ionomycin (0-1.5 μM) and 0.1 mM 5-(biotinamido)pentylamine (BAP) (Pierce). 3 h later, cells were collected in media, pelleted, washed once with PBS and resuspended in homogenization buffer (50 mM Tris-Cl, pH: 7.5, 150 mM NaCl, 1 mM EDTA), sonicated on ice. In a high protein binding 96-well plate (Falcon), 10 μg of protein was loaded in a total of 50 μL homogenization buffer and the plate was incubated at 4° C. overnight. The next day, 200 μL of blocking buffer (5% BSA, 0.01% Tween 20 in borate saline [100 mM boric acid, 20 mM Na-borate and 0.76 mM NaCl]) was added to each sample and the plate was incubated at 37° C. for 1 h. Each well was then rinsed 3 times with rinsing buffer (1% BSA, 0.01% Tween 20 in borate saline) and incubated with 1 μg/μL Horseradish peroxidase conjugated neutravidin (Pierce) in a total of 100 μL rinsing buffer at room temperature for 1 h. The samples were washed 4 times with rinsing buffer, and peroxidase reaction was conducted in the dark in 200 μL of OPD buffer (50 mL of 0.1 M Na2HPO4, 50 mM citric acid, 1 tablet o-phenylenediamine (Sigma Aldrich), 0.0006% H2O2). After 20 minutes, the reaction was stopped by addition of 50 μL of 1 M sulfuric acid and read at 493 nm wavelength.

TG2 = biological target: T2, TG2 (Homo sapiens, UniProt P21980); test: In situ TG2 transamidase activity (FC incorporation), HaCaT cells; assay type: cell-based; parameters: endogenous in cells
T2 sequence (P21980 1-687): T1 sequence (P21980 1-687 R580A) with A580R
Protocol: HaCaT cells were electroporated with mCer-TG2 or mCer-TG2-YAP and then treated with 0 or 5 μM of the indicated inhibitor and fluorescent lifetime was monitored. […] HaCaT cells were preloaded with fluorescein cadaverine, treated with the indicated inhibitor and then challenged with calcium ionophore, washed and assayed for FC incorporation. […] HaCaT were incubated for 48 h with the indicated inhibitor and extracts were prepared and incubated with GTP-agarose beads to measure TG2 binding to GTP agarose. The beads were then washed, boiled in Laemmli buffer and electrophoresed for immunoblot detection of TG2. Cell equivalent quantities of total and bound samples were electrophoresed to facilitate comparison of GTP bound versus total. […] Experiments were performed as described in FIGS. 31 (F) and (G).
In situ TG2 transamidase activity assay. Cells (40,000) were plated in 24-well attachment dishes in spheroid media and grown until 50% confluent. FC was added in 2 ml of serum-free medium at a final concentration of 20 μM and incubated for 4 h. […] After 30 min, the wells were supplemented with 10 NM A23187, a calcium ionophore.

Row | SMILES | resting (basal) transamidating activity of R580A-TG2 (R580A-TG2) | TG2 transamidase activity (FC incorporation) (TG2)
1 | C=CC(=O)NCCCC[C@H](NC(=O)OCc1ccccc1)C(=O)NCCOCCOCCNS(=O)(=O)c1cccc2c(N(C)C)cccc12 [NC9] | inhibit resting transamidating activity of R580A-TG2 | suppressed TG2 transamidase activity
2 | C=CC(=O)NCCCC[C@H](NC(=O)OCc1ccccc1)C(=O)N1CCN(S(=O)(=O)c2cccc3c(N(C)C)cccc23)CC1 [VA4, (S)-benzyl(6-acrylamido-1-(4-((5-(dimethylamino)naphthalen-1-yl)sulfonyl)piperazin-1-yl)-1-oxohexan-2-yl)carbamate] | inhibit resting transamidating activity of R580A-TG2 | suppressed TG2 transamidase activity
3 | C=CC(=O)NCCCC[C@H](NC(=O)OCc1ccccc1)C(=O)N1CCN(C(=O)c2cc3ccc(O)cc3oc2=O)CC1 [VA5, (S)-Benzyl(6-acrylamido-1-(4-(7-hydroxy-2-oxo-2H-chromene-3-carbonyl)piperazin-1-yl)-1-oxohexan-2-yl)carbamate] | inhibit resting transamidating activity of R580A-TG2 | suppressed TG2 transamidase activity
